# Experimental data reported in patent publication EP4610269A1, “UROKINASE PLASMINOGEN ACTIVATOR SURFACE RECEPTOR (UPAR) LIGANDS FOR DIAGNOSTIC OR THERAPEUTIC USE” (3B Pharmaceuticals GmbH, priority 2024, dated 2025).
# Where a SMILES comes first, the peptide text is derived from it. Bridges are numbered along the chain shown (N, C = ends). [ ]: non-standard residue; d: D form. The star is where a group is joined. GdDOTA = Gd(III) DOTA conjugate, O=C([O-])CN1CCN(CC(=O)[O-])CCN(CC(=O)*)CCN(CC(=O)[O-])CC1.[Gd+3]; DOTA(In) = O=C1CN2CCN3CCN(CC(=O)*)CCN(CC2)CC(=O)[O][In]([O]1)[O]C(=O)C3; DOTA(Lu) = O=C1CN2CCN3CCN(CC(=O)*)CCN(CC2)CC(=O)[O][Lu]([O]1)[O]C(=O)C3; CH3O(CH2CH2O)11CH2CH2CO = COCCOCCOCCOCCOCCOCCOCCOCCOCCOCCOCCOCCC(=O)*; nBuCAyl = n-butyl-carbamoyl (N-terminal blocking group), CCCCNC(=O)*; Pro(trans-4-F) = O=C(O)[C@@H]1C[C@@H](F)CN1; Lys(Me3) = C[N+](C)(C)CCCC[C@H](N)C(=O)O; Hyp = O=C(O)[C@@H]1C[C@@H](O)CN1; hArg = N=C(N)NCCCC[C@H](N)C(=O)O; hPhe = N[C@@H](CCc1ccccc1)C(=O)O; LaDOTA = La(III) DOTA conjugate; Cit = NC(=O)NCCC[C@H](N)C(=O)O; NMeL = CN[C@@H](CC(C)C)C(=O)O; αMeL = CC(C)C[C@](C)(N)C(=O)O; Orn = NCCC[C@H](N)C(=O)O; dNMeA = CN[C@H](C)C(=O)O; Nva = CCC[C@H](N)C(=O)O; Pentanoyl = CCCCC(=O)*; Aib = CC(C)(N)C(=O)O
# Experiments:
# human uPAR (uPAR-Fc) = molecular target: T1, human uPAR (uPAR-Fc) (Homo sapiens, UniProt Q03405); assay: Surface plasmon resonance (SPR) assay, single cycle kinetics; format: binding; details: pKD category for uPAR SPR activity assay, uPAR-Fc on Protein A-Chip, 25°C; for Kd: read-out: pKD CAT (converted)
# T1 construct: comprising amino acids Leu23-Arg303 according to UniProt entry Q03405.1; purchased R&D Systems 10378-UK-100
# T1 sequence (Q03405 23-303): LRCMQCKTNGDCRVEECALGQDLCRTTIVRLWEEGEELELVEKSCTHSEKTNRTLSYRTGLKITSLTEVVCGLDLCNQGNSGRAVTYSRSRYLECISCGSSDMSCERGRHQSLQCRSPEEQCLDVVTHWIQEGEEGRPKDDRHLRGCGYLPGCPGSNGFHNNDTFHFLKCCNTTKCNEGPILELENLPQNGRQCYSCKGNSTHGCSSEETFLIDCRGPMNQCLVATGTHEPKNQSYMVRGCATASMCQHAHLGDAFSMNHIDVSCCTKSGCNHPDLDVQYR
# Procedure, shortened: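 uPAR-Fc (Leu23-Arg303 extracellular domains, human IgG1 Fc) captured on Protein A chip to ~2000 RU; single-cycle kinetics at 25°C in HEPES running buffer pH 7.4 with 0.1% DMSO. KD from double-referenced sensorgrams fitted to 1:1 Langmuir model, reported as pKD.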
# [1] = molecular target: T2, uPAR-expressing HEC-265 human endometrial adenocarcinoma cells (Homo sapiens, UniProt Q03405); assay: Competitive FACS binding assay; details: pIC50 category of FACS binding
# T2 construct: Cell surface uPAR-expressing HEC-265 human endometrial adenocarcinoma cells; host or cells: HEC-265
# T2 sequence (Q03405 23-335): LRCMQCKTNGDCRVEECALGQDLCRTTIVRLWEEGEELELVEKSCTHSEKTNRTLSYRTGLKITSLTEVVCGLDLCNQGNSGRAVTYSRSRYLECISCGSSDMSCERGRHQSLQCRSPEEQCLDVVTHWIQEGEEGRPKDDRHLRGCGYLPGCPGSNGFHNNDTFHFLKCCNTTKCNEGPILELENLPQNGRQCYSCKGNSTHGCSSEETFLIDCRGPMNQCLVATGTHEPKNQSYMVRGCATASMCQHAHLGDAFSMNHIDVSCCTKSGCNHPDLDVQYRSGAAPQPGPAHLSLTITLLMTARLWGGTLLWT
# Procedure, shortened: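 HEC-265 cells incubated 1 h at 4 °C with 10 nM biotinylated uPAR peptide tracer plus increasing test compound, then stained with APC-streptavidin on ice. Median APC fluorescence by flow cytometry; 4PL fit gives pIC50.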
Kd (human uPAR (uPAR-Fc); single cycle kinetics) [nM],IC50 [1] [nM],pKD CAT (human uPAR (uPAR-Fc)),pIC50 CAT [1],pKD CAT (human uPAR (uPAR-Fc); single cycle kinetics),Compound
< 1.58,≤ 10,,,,"CCC[C@@H]1NC(=O)[C@H]([C@@H](C)CC)NC(=O)[C@@H]2C[C@@H](O)CN2C(=O)[C@@H]2CCCN2C(=O)[C@H](Cc2ccccc2)NC(=O)[C@H](Cc2ccc(O)cc2)NC(=O)[C@H](CCC(N)=O)NC(=O)[C@H](CCCNC(=N)N)NC(=O)[C@@H](NC(=O)[C@H](CC(C)C)N(C)C(C)=O)CSSC[C@@H](C(N)=O)NC1=O [UPAR-483, Ac-Nml-[Cys-Arg-Gln-Tyr-Phe-Pro-Hyp-Ile-Nva-Cys]-NH2] (Ac-[NMeL]CRQYFP[Hyp]I[Nva]C-NH2; disulfide 2-11)"
,,A (pKD values ≥ 8.8),A (pIC50 values ≥8.0),,Pent-[Cys-Asn-Lys(LuDOTA)-Tyr-Phe-Pro-Hyp-Ile-Nva-Cys]-NH2 (Pentanoyl-CNK(DOTA(Lu))YFP[Hyp]I[Nva]C-NH2; disulfide 1-10; not fully specified; also: Lu(III) complexed by DOTA) [UPAR-335]
,,A (pKD values ≥ 8.8),A (pIC50 values ≥8.0),,Pent-[Cys-Cit-Lys(InDOTA)-Tyr-Phe-Pro-Hyp-Ile-Nva-Cys]-NH2 (Pentanoyl-C[Cit]K(DOTA(In))YFP[Hyp]I[Nva]C-NH2; disulfide 1-10; not fully specified; also: In(III) complexed by DOTA) [UPAR-182]
,,,A (pIC50 values ≥8.0),A (pKD values ≥ 8.8),Pent-[Cys-Cit-Lys(InDOTA-PEG12)-Tyr-Phe-Pro-Hyp-Ile-Nva-Cys]-NH2 (Pentanoyl-C[Cit]KYFP[Hyp]I[Nva]C-NH2; disulfide 1-10; not fully specified (residue 3); printed as Pent-[Cys-Cit-Lys(InDOTA-PEG12)-Tyr-Phe-Pro-Hyp-Ile-Nva-Cys]-NH2; also: In(III) complexed by DOTA) [UPAR-404]
,,A (pKD values ≥ 8.8),A (pIC50 values ≥8.0),,Pent-[Cys-Cit-Lys(LaDOTA)-Ppa-Phe-Pro-Hyp-Ile-Nva-Cys]-NH2 [UPAR-296]
,,A (pKD values ≥ 8.8),A (pIC50 values ≥8.0),,Pent-[Cys-Cit-Lys(LaDOTA)-Tyr-Phe-Pro-Aib-Ile-Nva-Cys]-NH2 (Pentanoyl-C[Cit]K(LaDOTA)YFP[Aib]I[Nva]C-NH2; disulfide 1-10; not fully specified; also: La(III) complexed by DOTA) [UPAR-279]
,,,A (pIC50 values ≥8.0),A (pKD values ≥ 8.8),Pent-[Cys-Cit-Lys(LuDOTA)-Guf-Phe-Pro-Hyp-Ile-Nva-Cys]-NH2 [UPAR-350]
,,,A (pIC50 values ≥8.0),A (pKD values ≥ 8.8),Pent-[Cys-Cit-Lys(LuDOTA)-Nif-Phe-Pro-Hyp-Ile-Nva-Cys]-NH2 [UPAR-352]
,,,A (pIC50 values ≥8.0),A (pKD values ≥ 8.8),Succinyl-Nva-[Cys-Cit-Lys(GdDOTA)-Tyr-Phe-Pro-Hyp-Ile-Nva-Cys]-NH2 [UPAR-460]
,,,A (pIC50 values ≥8.0),A (pKD values ≥ 8.8),nBuCAyl-[Cys-Cit-Lys(LuDOTA)-Tyr-Phe-Pro-Hyp-Ile-Nva-Cys]-NH2 (nBuCAyl-C[Cit]K(DOTA(Lu))YFP[Hyp]I[Nva]C-NH2; disulfide 1-10; also: Lu(III) chelated by DOTA on Lys3) [UPAR-464]

# Continued, compound first:
Compound,Kd (human uPAR (uPAR-Fc); single cycle kinetics) [nM],IC50 [1] [nM],pKD CAT (human uPAR (uPAR-Fc)),pIC50 CAT [1],pKD CAT (human uPAR (uPAR-Fc); single cycle kinetics)
"CCC[C@@H]1NC(=O)[C@H]([C@@H](C)CC)NC(=O)[C@@H]2C[C@@H](O)CN2C(=O)[C@@H]2CCCN2C(=O)[C@H](Cc2ccccc2)NC(=O)[C@H](Cc2ccc(O)cc2)NC(=O)[C@H](CCC(N)=O)NC(=O)[C@H](CCCNC(=N)N)NC(=O)[C@@H](NC(=O)[C@H](CCc2ccccc2)NC(C)=O)CSSC[C@@H](C(N)=O)NC1=O [UPAR-484, Ac-Hfe-[Cys-Arg-Gln-Tyr-Phe-Pro-Hyp-Ile-Nva-Cys]-NH2] (Ac-[hPhe]CRQYFP[Hyp]I[Nva]C-NH2; disulfide 2-11)",1.58 to 10,≤ 10,,,
"CCC[C@@H]1NC(=O)[C@H]([C@@H](C)CC)NC(=O)[C@@H]2C[C@@H](O)CN2C(=O)[C@@H]2CCCN2C(=O)[C@H](Cc2ccccc2)NC(=O)[C@H](Cc2ccc(O)cc2)NC(=O)[C@H](CCC(N)=O)NC(=O)[C@H](CCCNC(=N)N)NC(=O)[C@@H](NC(=O)[C@](C)(CC(C)C)NC(C)=O)CSSC[C@@H](C(N)=O)NC1=O [UPAR-485, Ac-Aml-[Cys-Arg-Gln-Tyr-Phe-Pro-Hyp-Ile-Nva-Cys]-NH2] (Ac-[αMeL]CRQYFP[Hyp]I[Nva]C-NH2; disulfide 2-11)",< 1.58,≤ 10,,,
Butoc-[Cys-Cit-Lys(LuDOTA)-Tyr-Pcf-4Cfp-Hyp-Chg-Nva-Cys]-NH2 [UPAR-169],,,A (pKD values ≥ 8.8),A (pIC50 values ≥8.0),
Butoc-[Cys-Cit-Lys(LuDOTA)-Tyr-Pcf-4Cfp-Hyp-Ile-Nva-Cys]-NH2 [UPAR-369],,,,A (pIC50 values ≥8.0),A (pKD values ≥ 8.8)
Pent-[Cys-Cit-Lys(GdDOTA)-Mpa-Phe-Pro-Hyp-Ile-Nva-Cys]-NH2 [UPAR-251],,,A (pKD values ≥ 8.8),A (pIC50 values ≥8.0),
Pent-[Cys-Cit-Lys(GdDOTA)-Tyr-Phe-Pro-4Tfp-Ile-Nva-Cys]-NH2 (Pentanoyl-C[Cit]K(GdDOTA)YFP[Pro(trans-4-F)]I[Nva]C-NH2; disulfide 1-10; not fully specified; also: Gd(III) complexed by DOTA) [UPAR-435],,,,A (pIC50 values ≥8.0),A (pKD values ≥ 8.8)
Pent-[Cys-Cit-Lys(InDOTA)-Tyr-Mpa-Pro-Hyp-Ile-Nva-Cys]-NH2 [UPAR-331],,,A (pKD values ≥ 8.8),A (pIC50 values ≥8.0),
Pent-[Cys-Cit-Lys(InDOTA)-Tyr-Pcf-Pro-Hyp-Ile-Nva-Cys]-NH2 [UPAR-355],,,,A (pIC50 values ≥8.0),A (pKD values ≥ 8.8)
Pent-[Cys-Cit-Lys(LaDOTA)-Tyr-Thi-Pro-Hyp-Ile-Nva-Cys]-NH2 [UPAR-166],,,A (pKD values ≥ 8.8),A (pIC50 values ≥8.0),
Pent-[Cys-Cit-Lys(LuDOTA)-Tyr-Egm-Pro-Hyp-Ile-Nva-Cys]-NH2 [UPAR-254],,,A (pKD values ≥ 8.8),A (pIC50 values ≥8.0),
Pent-[Cys-Cit-Lys(LuDOTA)-Tyr-Phe-Pro-nma-Ile-Nva-Cys]-NH2 (Pentanoyl-C[Cit]K(DOTA(Lu))YFP[dNMeA]I[Nva]C-NH2; disulfide 1-10; not fully specified; also: Lu(III) complexed by DOTA) [UPAR-151],,,A (pKD values ≥ 8.8),A (pIC50 values ≥8.0),
Pent-[Cys-Har-Lys(GdDOTA)-Tyr-Phe-Pro-Hyp-Ile-Nva-Cys]-NH2 (Pentanoyl-C[hArg]K(GdDOTA)YFP[Hyp]I[Nva]C-NH2; disulfide 1-10; not fully specified; also: Gd(III) complexed by DOTA) [UPAR-376],,,,A (pIC50 values ≥8.0),A (pKD values ≥ 8.8)
Pent-[Cys-KMe3-Lys(LaDOTA)-Tyr-Phe-Pro-Hyp-Ile-Nva-Cys]-NH2 (Pentanoyl-C[Lys(Me3)]K(LaDOTA)YFP[Hyp]I[Nva]C-NH2; disulfide 1-10; not fully specified; also: La(III) complexed by DOTA) [UPAR-183],,,A (pKD values ≥ 8.8),A (pIC50 values ≥8.0),
Pent-[Cys-Orn(mPEG12)-Lys(InDOTA)-Tyr-Phe-Pro-Hyp-Ile-Nva-Cys]-NH2 (Pentanoyl-C[Orn](CH3O(CH2CH2O)11CH2CH2CO)K(DOTA(In))YFP[Hyp]I[Nva]C-NH2; disulfide 1-10; not fully specified; also: In(III) complexed by DOTA) [UPAR-311],,,A (pKD values ≥ 8.8),A (pIC50 values ≥8.0),
